Reference: US8686043B2, “Heterocyclic sulfonamides, uses and pharmaceutical compositions thereof” (Pfizer Inc., priority 2009, dated 2014)

Tested on: AMPA receptors
Experiment: AMPA ES Cell FLIPR Screen (AMPA Potentiator Assay)
Type: cell-based, murine
Conditions: for EC50: ES cell-derived neurons, FLIPR (Fluo-4), 32 μM AMPA challenge, values marked * are the geometric mean of 2-5 EC50 determinations
Description: Growth and Maintenance of ES Cells
Murine ES cell line E14, with a targeted mutation in the Sox1 gene and a neuroectodermal marker that offers G418 resistance when the Sox1 gene is expressed (Stem Cell Sciences, West Mains Road, Edinburgh, Scotland EH9 3JQ) may be used in all experiments. ES cells may be maintained undifferentiated as previously described (Methods For The Isolation And Maintenance Of Murine Embryonic Stem Cells; Roach-M-L, McNeish-J-D., Methods in Molecular Biology, 185, 1-16 (2002)). Briefly, ES cells may be grown in stem cell culture media comprising a base medium of Knockout™ D-MEM (Invitrogen 5791 Van Allen Way, Carlsbad, Calif. USA 92008), supplemented with 15% ES qualified Fetal Bovine Serum (FBS) (Invitrogen), 0.2 mM L-Glutamine (Invitrogen), 0.1 mM MEM non-essential amino acids (Invitrogen), 30 μg/ml Gentamicin […] (Invitrogen), 1000 U/ml ESGRO™ (CHEMICON International, Inc., 28820 Single Oak Drive, Temecula, Calif. 92590) and 0.1 mM 2-mercaptoethanol (Sigma, 3050 Spruce St., St. Louis, Mo. 63103). ES cells may then be plated on gelatin-coated dishes (BD Biosciences, 2350 Qume Drive, San Jose, Calif. 95131), wherein the media is changed daily and the cells dissociated with 0.05% Trypsin EDTA (Invitrogen) every other day.
Neural In Vitro Differentiation of ES Cells
Embryoid Body Formation: Prior to embryoid body (EB) formation the ES cells may be weaned from FBS onto Knockout Serum Replacement™ (KSR) (Invitrogen). To form EBs, ES cells may be dissociated into a single cell suspension, then 3×10^6 cells plated in bacteriology dishes (Nunc 4014) and grown as a suspension culture in NeuroEB-I medium that consisted of Knockout™ D-MEM (Invitrogen), supplemented with 10% KSR (Invitrogen), 0.2 mM L-Glutamine (Invitrogen), 0.1 mM MEM non-essential amino acids (Invitrogen), 30 μg/ml Gentamicin (Invitrogen), 1000 U/ml ESGRO™ (CHEMICON International, Inc.), 0.1 mM 2-mercaptoethanol (Sigma) and 150 ng/ml Transferrin (Invitrogen). The plates may then be put on a Stovall Belly Button™ shaker in an atmospheric oxygen incubator. The media may be changed on day 2 of EB formation with NeuroEB-I and on day 4 with NeuroEB-II (NeuroEB-I plus 1 μg/ml mNoggin (R&D Systems, 614 McKinley Place N.E. Minneapolis, Minn. 55413)
Neuronal Precursor Selection and Expansion: On day 5 of EB formation, EBs may be dissociated with 0.05% Trypsin EDTA, and 4×10^6 cells/100 mm dish may then be plated on Laminin coated tissue culture dishes in NeuroEB-II-G418 medium that consisted of a base medium of a 1:1 mixture of D-MEM/F12 supplemented with N2 supplements and NeuroBasal Medium supplemented with B27(I ASSUME THIS IS THE VITAMIN) supplement and 0.1 mM L-Glutamine (all from Invitrogen). The base medium may then be supplemented with 10 ng/ml bFGF (Invitrogen), 1 μg/ml mNoggin, 500 ng/ml SHH-N (IS THIS SONIC HEDGEHOG FROM ProSpecBio Rehovot Science Park, P.O. BOX 398, Rehovot 76103, Israel), 100 ng/ml FGF-8b (R&D Systems), 1 μg/ml Laminin and 200 μg/ml G418 (Invitrogen) for selection of neuronal precursors expressing Sox-1. The plates may then be put in an incubator containing 2% oxygen and maintained in these conditions. During the 6-day selection period, the NeuroEB-II ([…]) media should be changed daily. On day 6, the surviving neuronal precursor foci may then be dissociated with 0.05% Trypsin EDTA and the cells plated at a density of 1.5×10^6 cells/100 mm Laminin coated dish in Neuroll ([…])-G418 medium. The cells may then be dissociated every other day for expansion, and prepared for cryopreservation at passage 3 or 4. The cryopreservation medium typically contains 50% KSR, 10% dimethyl sulfoxide (DMSO) (Sigma) and 40% Neurol([…])-G418 medium. Neuronal precursors may be cryopreserved at a concentration of 4×10^6 cells/ml and 1 ml/cryovial in a controlled rate freezer overnight then transferred to an ultra-low freezer or liquid nitrogen for long-term storage. […]

| Compound | EC50 | potency compared with its enantiomer (title compound versus its enantiomer prepared from the (1R,2S) bromide) | biological activity improved over that of its enantiomer (title compound versus its enantiomer) |
| --- | --- | --- | --- |
| COc1ccc(-c2ccc(O[C@H]3COC[C@H]3NS(=O)(=O)C(C)C)cc2)cn1 (relative stereo) [Example 13, cis-N-{4-[4-(6-methoxypyridin-3-yl)phenoxy]tetrahydrofuran-3-yl}propane-2-sulfonamide] | 5.28 µM |  |  |
| CC(C)S(=O)(=O)N[C@@H]1COC[C@@H]1Oc1ccc(-c2ccoc2)cc1 (relative stereo) [Example 14, cis-N-{4-[4-(3-furyl)phenoxy]tetrahydrofuran-3-yl}propane-2-sulfonamide] | 2.32 µM |  |  |
| CC(C)S(=O)(=O)N[C@@H]1COC[C@@H]1Oc1ccc(-c2cccnc2F)cc1 (relative stereo) [Example 15, cis-N-{4-[4-(2-fluoropyridin-3-yl)phenoxy]tetrahydrofuran-3-yl}propane-2-sulfonamide] | 2.88 µM |  |  |
| CC(C)S(=O)(=O)N[C@@H]1COC[C@@H]1Oc1ccc(-c2ccsc2)cc1 (relative stereo) [Example 24, cis-N-{4-[4-(3-thienyl)phenoxy]tetrahydrofuran-3-yl}propane-2-sulfonamide] | 0.523 µM |  |  |
| CC(C)S(=O)(=O)N[C@H]1COC[C@H]1Oc1ccc(-c2ccc(C(=O)N(C)C)cc2)cc1 (relative stereo) [Example 46, cis-4′-({4-[(isopropyl-sulfonyl)-amino]tetrahydrofuran-3-yl}oxy)-N,N-dimethyl-biphenyl-4-carboxamide] | 6.76 µM |  |  |
| CC(C)S(=O)(=O)N[C@H]1COC[C@H]1Oc1ccc(-c2ccccc2C(N)=O)cc1 (relative stereo) [Example 49, cis-4′-({4-[(isopropylsulfonyl)amino]tetrahydrofuran-3-yl}oxy)biphenyl-2-carboxamide] | 1.41 µM |  |  |
| CC(C)S(=O)(=O)N[C@H]1COC[C@H]1Oc1ccc(-c2ccccc2S(=O)(=O)NC(C)(C)C)cc1 (relative stereo) [Example 51, cis-N-tert-butyl-4′-({4-[(isopropylsulfonyl)amino]tetrahydrofuran-3-yl}oxy)biphenyl-2-sulfonamide] | 2.09 µM |  |  |
| CC(C)S(=O)(=O)N[C@H]1COC[C@H]1Oc1ccc(-c2cccc(C(N)=O)c2)cc1 (relative stereo) [Example 53, cis-4′-({4-[(isopropylsulfonyl)amino]tetrahydrofuran-3-yl}oxy) biphenyl-3-carboxamide] | 1.11 µM |  |  |
| CC(C)S(=O)(=O)N[C@H]1COC[C@H]1Oc1ccc(-c2ccc(F)cc2C#N)cc1 (single isomer, unassigned) [Example 16] | < 0.01 µM |  |  |
| CC(C)S(=O)(=O)N[C@H]1COC[C@H]1Oc1ccc(-c2ccc(F)cc2)cc1 (single isomer, unassigned) [Example 17] | 0.405 µM |  |  |
| CC(C)S(=O)(=O)N[C@H]1COC[C@H]1Oc1ccc(-c2ccccc2)cc1 [Example 2, N-[(3S,4S)-4-(biphenyl-4-yloxy)tetrahydrofuran-3-yl]propane-2-sulfonamide] | 1.36 µM |  |  |
| CC(C)S(=O)(=O)N[C@H]1COC[C@H]1Oc1ccc(-c2ccccc2C#N)cc1 [Example 3, N-{(3S,4S)-4-[(2′-cyanobiphenyl-4-yl)oxy]tetrahydrofuran-3-yl}propane-2-sulfonamide] | 0.0217 µM |  |  |
| CC(C)S(=O)(=O)N[C@H]1COC[C@H]1Oc1ccc(-c2ccc(C#N)s2)cc1 [Example 4, N-{(3S,4S)-4-[4-(5-cyano-2-thienyl)phenoxy]tetrahydrofuran-3-yl}propane-2-sulfonamide] | 1.79 µM |  |  |
| CC(C)S(=O)(=O)N[C@H]1CCC[C@H]1Oc1ccc(-c2ccccc2C#N)cc1 [Example 5, N-{(1S,2R)-2-[(2′-cyanobiphenyl-4-yl)oxy]cyclopentyl}propane-2-sulfonamide] | 0.535 µM | significantly more potent than its enantiomer |  |
| CC(C)S(=O)(=O)N[C@H]1CCC[C@H]1Oc1ccc(-c2ccc(C#N)s2)cc1 [Example 6, N-{(1S,2R)-2-[4-(5-cyano-2-thienyl)phenoxy]cyclopentyl}propane-2-sulfonamide] | 1.54 µM |  |  |
| CC(C)S(=O)(=O)N[C@H]1CCCC[C@H]1Oc1ccc(-c2ccccc2C#N)cc1 [Example 7, N-{(1S,2R)-2-[(2′-cyanobiphenyl-4-yl)oxy]cyclohexyl}propane-2-sulfonamide] | 0.157 µM |  | > 150 times |
| CC(C)S(=O)(=O)N[C@H]1COC[C@H]1Oc1ccc(-c2ccc(O)cc2)cc1 [Example 18, N-{(3S,4S)-4-[(4′-hydroxybiphenyl-4-yl)oxy]tetra hydrofuran-3-yl}propane-2-sulfonamide] | 1.18 µM |  |  |
| CCOc1cc(F)ccc1-c1ccc(O[C@@H]2COC[C@@H]2NS(=O)(=O)C(C)C)cc1 [Example 19, N-{(3S,4S)-4-[(2′-ethoxy-4′-fluorobiphenyl-4-yl)oxy]tetra hydrofuran-3-yl}propane-2-sulfonamide] | 0.248 µM |  |  |
| Cc1cc(F)ccc1-c1ccc(O[C@@H]2COC[C@@H]2NS(=O)(=O)C(C)C)cc1 [Example 20, N-{(3S,4S)-4-[(4′-fluoro-2′-methylbiphenyl-4-yl)oxy]tetra hydrofuran-3-yl}propane-2-sulfonamide] | 0.729 µM |  |  |
| CC(C)S(=O)(=O)N[C@H]1COC[C@H]1Oc1ccc(-c2ccc(F)cc2F)cc1 [Example 21, N-{(3S,4S)-4-[(2′,4′-difluorobiphenyl-4-yl)oxy]tetra hydrofuran-3-yl}propane-2-sulfonamide] | 0.239 µM |  |  |
| CC(C)S(=O)(=O)N[C@H]1COC[C@H]1Oc1ccc(-c2cncnc2)cc1 [Example 22, N-[(3S,4S)-4-(4-pyrimidin-5-ylphenoxy)tetrahydrofuran-3-yl]propane-2-sulfonamide] | 0.861 µM |  |  |
| CCOc1ccccc1-c1ccc(O[C@@H]2CCC[C@@H]2NS(=O)(=O)C(C)C)cc1 [Example 25, N-{(1S,2R)-2-[(2′-ethoxybiphenyl-4-yl)oxy]cyclopentyl} propane-2-sulfonamide] | 2.96 µM |  |  |
| CC(C)S(=O)(=O)N[C@H]1CCC[C@H]1Oc1ccc(-c2ccccc2)cc1 [Example 26, N-[(1S,2R)-2-(biphenyl-4-yloxy)cyclopentyl] propane-2-sulfonamide] | 1.12 µM |  |  |
| CC(C)S(=O)(=O)N[C@H]1CCC[C@H]1Oc1ccc(N2CCCC2)cc1 [Example 27, N-[(1S,2R)-2-(4-pyrrolidin-1-ylphenoxy)cyclopentyl] propane-2-sulfonamide] | 0.857 µM |  |  |
| CC(C)S(=O)(=O)N[C@H]1CCC[C@H]1Oc1ccc(-c2ccc(C(=O)O)cc2C#N)cc1 [Example 28, 2-cyano-4′-({(1R,2S)-2-[(isopropylsulfonyl)amino]cyclopentyl}oxy) biphenyl-4-carboxylic acid] | 0.651 µM |  |  |
| CC(C)S(=O)(=O)N[C@H]1CCC[C@H]1Oc1ccc(-c2ccccc2)c(F)c1 [Example 29, N-{(1S,2R)-2-[(2-fluorobiphenyl-4-yl)oxy]cyclopentyl} propane-2-sulfonamide] | 0.521 µM |  |  |
| CC(C)S(=O)(=O)N[C@H]1CCC[C@H]1Oc1ccc(-c2ccc(F)cc2C#N)c(F)c1 [Example 30, N-{(1S,2R)-2-[(2′-cyano-2,4′-difluorobiphenyl-4-yl)oxy]cyclopentyl}propane-2-sulfonamide] | 0.349 µM |  |  |
